Here are results for two substances from patent US9486444B1, “Anti-cancer compound” (KING SAUD UNIVERSITY, priority 2016, dated 2016).

For the data set, the system named is U-937 blood cancer cell line. The data set can be described thus: MTT in vitro cytotoxicity assay. It is filed as cell-based. Conditions: U-937, MTT assay. As to the method: For cytotoxicity assays, the anti-cancer compounds were prepared as a stock solution, to suit a universal 96 well plate map, at different concentrations in μM, and dissolved in DMSO dH2O. Working solutions were prepared in the culture medium and added to the wells 24 hours after seeding of 5 to 7×10^3 cells per well in 200 μL of fresh culture medium. DMSO (1%)/dH2O was used as the solvent control. The DMSO concentration was maintained at a concentration less than 1% (i.e., a non-toxic concentration). Microscopic cytological changes were monitored and photographed following exposure to different concentrations of the compounds for 24 and 48 hours using an inverted microscope. After the respective periods of treatment, plates were centrifuged and washed with fresh growth medium. Then, 20 μL of MTT solution [5 mg/mL in phosphate-buffered saline (PBS)] was added to each well, and the plates were wrapped with aluminum foil and incubated overnight at 37° C. The plates were centrifuged and the supernatants were removed carefully […]. The purple formazan product was dissolved in 100 μL of 100% DMSO. The absorbance was monitored at 570 nm (measurement) and 630 nm (reference) using a 96 well plate reader. Data were collected for four replicates each and used to calculate the median effect dose or concentration; i.e., IC50. […]

Entries after “also recorded” stand apart in the source; their conditions may differ.

Take “5′-benzyl-4′-(p-tolyl)-5-(trifluoromethoxy)spiro[3,2′]oxindolopyrrolidino-4′-(methylphenyl)-1″-styryl-5-benzylidene-spiro[3′.3″]piperidi-4″-one [Compound 4i]”: the “cytotoxicity (in words)” value (24 and 48 hours) was “most cytotoxic compound; also recorded: excellent cytotoxicity effects at the lowest concentrations”. Consider bleomycin [reference compound], for which the IC50 (24 hour incubation time, read-out: IC50 = concentration of drug required to inhibit growth of 50% of the cancer cells) was 16.2 ± 4.5 µM.
